Data from US8916567B2, “Certain crystalline hydrates, pharmaceutical compositions thereof and methods for preparation and use thereof” (Universal Technology Alliance, Inc., priority 2009, dated 2014).
Like-named read-outs stand apart in the source and are kept apart here.

Columns and labels:
Staphylococcus aureus = assay: Minimum inhibitory concentration (MIC) in vitro, agar dilution method, quality control strain; type: cell-based; settings: strain S. AT C C25923 (Table 7 No. 1); hydrate
Method in brief: (§1)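 Clinical isolates collected in Sichuan and Beijing (2007–2008) were tested by CLSI/NCCLS agar dilution. Compounds were dissolved in DMSO and diluted in sterile distilled water; MIC50, MIC90 and MIC range across strains were derived.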

[1] = Solubility in different solvents according to Chinese Pharmacopeia (2005 edition); type: physicochemical; settings: for Result: at the given solute:solvent ratio
Method: The solubility of the (S)—[N-3-(3′-fluoro-4′-(4″-phenylpiperazinyl))phenyl-2-oxo-5-oxazolelidinyl]methylacetamide hydrates was tested with different solvents, and the test results are shown in Tables 15-19. The solubility was measured according to Chinese Pharmacopeia (2005 edition).

S. epidermidis MSSE = assay: Minimum inhibitory concentration (MIC) in vitro, agar dilution method; type: cell-based
Method in brief: as §1

E. feacium = assay: as above; type: cell-based
Method in brief: as §1

S. epidermidis MRSE = assay: as above; type: cell-based; settings: hydrate
Method in brief: as §1

E. feacalis = assay: as above; type: cell-based; settings: hydrate
Method in brief: as §1

[2] = system: Staphylococcus aureus MRSA; assay: as above; type: cell-based
Method in brief: as §1

[3] = system: Staphylococcus aureus MSSA; assay: as above; type: cell-based
Method in brief: as §1

[4] = S. ep MSSE (10 strains), clinically isolated, hydrate
[5] = E. feacium (5 strains), clinically isolated, hydrate
[6] = S. ep MRSE (10 strains), clinically isolated
[7] = E. feacalis (5 strains), clinically isolated
[8] = S. MRSA (10 strains), clinically isolated, hydrate
[9] = S. MSSA (11 strains), clinically isolated, hydrate

SMILES: CC(=O)NC[C@H]1CN(c2ccc(N3CCN(c4ccccc4)CC3)c(F)c2)C(=O)O1 [½ hydrate, (S)—[N-3-(3′-fluoro-4′-(4″-phenylpiperazinyl))phenyl-2-oxo-5-oxazolidinyl]methyl acetamide 1/2 hydrate]
- MIC (Staphylococcus aureus): 0.25 µg/mL
- Solubility compared with the anhydride ([1]; different solvents): sometimes more soluble than the anhydride
- Result ([1]; solvent 0.1N Hydrochloric acid): Dissolved
- Result ([1]; solvent 0.1N Sodium hydroxide): Insoluble
- Result ([1]; solvent Acetonitrile): Dissolved
- Result ([1]; solvent Ethanol): Dissolved
- Result ([1]; solvent Methanol): Dissolved
- Result ([1]; solvent Water, hydrate): Dissolved
- MIC90 (S. epidermidis MSSE; [4]): 0.25 µg/mL
- MICrange (S. epidermidis MSSE; [4]): 0.06 to 0.25 µg/mL
- MIC50 (S. epidermidis MSSE; Staphylococcus epidermidis, S. ep MSSE (10 strains), clinically isolated, read-out: MIC50): 0.25 µg/mL
- MIC (S. epidermidis MSSE; Staphylococcus epidermidis, strain S. ep MSSE113 (Table 7 No. 24), read-out: MIC): 0.25 µg/mL
- MIC (S. epidermidis MSSE; Staphylococcus epidermidis, strain S. ep MSSE118 (Table 8 No. 2), read-out: MIC): 0.25 µg/mL
- MIC (S. epidermidis MSSE; Staphylococcus epidermidis, strain S. ep MSSE140 (Table 8 No. 3), read-out: MIC): 0.25 µg/mL
- MIC (S. epidermidis MSSE; strain S. ep MSSE87 (Table 7 No. 23), hydrate): 0.06 µg/mL
- MIC (S. epidermidis MSSE; strain S. ep MSSE88 (Table 8 No. 5), hydrate): 0.25 µg/mL
- MIC (S. epidermidis MSSE; strain S. ep MSSE116 (Table 7 No. 25), hydrate): 0.25 µg/mL
- MIC (S. epidermidis MSSE; strain S. ep MSSE119 (Table 7 No. 27), hydrate): 0.25 µg/mL
- MIC (S. epidermidis MSSE; strain S. ep MSSE137 (Table 8 No. 4), hydrate): 0.25 µg/mL
- MIC (S. epidermidis MSSE; strain S. ep MSSE142 (Table 7 No. 26), hydrate): 0.125 µg/mL
- MIC (S. epidermidis MSSE; strain S. ep MSSE153 (Table 8 No. 1), hydrate): 0.25 µg/mL
- MIC50 (E. feacium; [5]): 0.5 µg/mL
- MIC90 (E. feacium; [5]): 1 µg/mL
- MICrange (E. feacium; [5]): 0.25 to 1 µg/mL
- MIC (E. feacium; strain Efm 98 (Table 8 No. 21), hydrate): 0.25 µg/mL
- MIC (E. feacium; strain Efm 171 (Table 8 No. 25), hydrate): 0.25 µg/mL
- MIC (E. feacium; strain Efm 197 (Table 8 No. 22)): 0.5 µg/mL
- MIC (E. feacium; strain Efm N3 (Table 8 No. 23), hydrate): 0.5 µg/mL
- MIC (E. feacium; strain Efm N4 (Table 8 No. 24), hydrate): 1 µg/mL
- MIC50 (S. epidermidis MRSE; [6]): 0.25 µg/mL
- MIC90 (S. epidermidis MRSE; [6]): 0.25 µg/mL
- MICrange (S. epidermidis MRSE; [6]): 0.25 µg/mL
- MIC (S. epidermidis MRSE; strain S. ep MRSE4 (Table 8 No. 9)): 0.25 µg/mL
- MIC (S. epidermidis MRSE; strain S. ep MRSE20 (Table 8 No. 6)): 0.25 µg/mL
- MIC (S. epidermidis MRSE; strain S. ep MRSE87 (Table 8 No. 13)): 0.25 µg/mL
- MIC (S. epidermidis MRSE; strain S. ep MRSE90 (Table 8 No. 10)): 0.25 µg/mL
- MIC (S. epidermidis MRSE; strain S. ep MRSE101 (Table 8 No. 7)): 0.25 µg/mL
- MIC (S. epidermidis MRSE; strain S. ep MRSE105 (Table 8 No. 11)): 0.25 µg/mL
- MIC (S. epidermidis MRSE; strain S. ep MRSE140 (Table 8 No. 14)): 0.25 µg/mL
- MIC (S. epidermidis MRSE; strain S. ep MRSE142 (Table 8 No. 12)): 0.25 µg/mL
- MIC (S. epidermidis MRSE; strain S. ep MRSE210 (Table 8 No. 15)): 0.25 µg/mL
- MIC (S. epidermidis MRSE; strain S. ep MRSE211 (Table 8 No. 8)): 0.25 µg/mL
- MIC50 (E. feacalis; [7]): 0.125 µg/mL
- MIC90 (E. feacalis; [7]): 0.25 µg/mL
- MICrange (E. feacalis; [7]): 0.06 to 0.25 µg/mL
- MIC (E. feacalis; strain Efa 54 (Table 8 No. 20)): 0.06 µg/mL
- MIC (E. feacalis; strain Efa 116 (Table 8 No. 16)): 0.25 µg/mL
- MIC (E. feacalis; strain Efa 3006 (Table 8 No. 18)): 0.06 µg/mL
- MIC (E. feacalis; strain Efa 33748 (Table 8 No. 17)): 0.25 µg/mL
- MIC50 [2, 8]: 0.25 µg/mL
- MIC90 [2, 8]: 0.25 µg/mL
- MICrange [2, 8]: 0.25 to 0.5 µg/mL
- MIC ([2]; Staphylococcus aureus, MRSA, strain S. MRSA 101 (Table 7 No. 14), read-out: MIC): 0.5 µg/mL
- MIC ([2]; Staphylococcus aureus, MRSA, strain S. MRSA 201 (Table 7 No. 13), read-out: MIC): 0.5 µg/mL
- MIC ([2]; Staphylococcus aureus, MRSA, strain S. MRSA B27 (Table 7 No. 21), read-out: MIC): 0.25 µg/mL
- MIC ([2]; strain S. MRSA 29 (Table 7 No. 15), hydrate): 0.25 µg/mL
- MIC ([2]; strain S. MRSA B105 (Table 7 No. 17), hydrate): 0.25 µg/mL
- MIC ([2]; strain S. MRSA B143 (Table 7 No. 19), hydrate): 0.25 µg/mL
- MIC ([2]; strain S. MRSA B151 (Table 7 No. 20), hydrate): 0.25 µg/mL
- MIC ([2]; strain S. MRSA B164 (Table 7 No. 16), hydrate): 0.25 µg/mL
- MIC ([2]; strain S. MRSA B199 (Table 7 No. 22), hydrate): 0.25 µg/mL
- MIC ([2]; strain S. MRSA B617 (Table 7 No. 18), hydrate): 0.25 µg/mL
- MIC50 [3, 9]: 0.25 µg/mL
- MIC90 [3, 9]: 0.25 µg/mL
- MICrange [3, 9]: 0.25 to 0.5 µg/mL
- MIC ([3]; Staphylococcus aureus, MSSA, strain S. MSSA 195 (Table 7 No. 6), read-out: MIC): 0.5 µg/mL
- MIC ([3]; Staphylococcus aureus, MSSA, strain S. MSSA 201 (Table 7 No. 11), read-out: MIC): 0.25 µg/mL
- MIC ([3]; Staphylococcus aureus, MSSA, strain S. MSSA 466 (Table 7 No. 8), read-out: MIC): 0.25 µg/mL
- MIC ([3]; Staphylococcus aureus, MSSA, strain S. MSSA 519 (Table 7 No. 9), read-out: MIC): 0.5 µg/mL
- MIC ([3]; strain S. MSSA 123 (Table 7 No. 3), hydrate): 0.25 µg/mL
- MIC ([3]; strain S. MSSA 187 (Table 7 No. 7), hydrate): 0.25 µg/mL
- MIC ([3]; strain S. MSSA 195 (Table 7 No. 12), hydrate): 0.25 µg/mL
- MIC ([3]; strain S. MSSA 232 (Table 7 No. 2), hydrate): 0.25 µg/mL
- MIC ([3]; strain S. MSSA 275 (Table 7 No. 10), hydrate): 0.25 µg/mL
- MIC ([3]; strain S. MSSA 520 (Table 7 No. 4), hydrate): 0.25 µg/mL
- MIC ([3]; strain S. MSSA 580 (Table 7 No. 5), hydrate): 0.25 µg/mL
